# pIC50: −log10 of the molar value. Activity calls are given as the source filed them. The rule behind the calls is not given here.
# Molecular target: not listed separately
# Experiment: Inhibition of caspase-like activity of 20S proteasome catalytic core from rabbit erythrocytes using Z-LLE-NA as substrate preincubated for 15 mins prior to substrate addition measured after 45 mins
# Design: species or system Oryctolagus cuniculus
# Details: not given
row,Structure (SMILES),pIC50
1,CC1(C)OC(=O)c2c1ccn(CCc1ccc(S(N)(=O)=O)cc1)c2=O,5.26
2,CC1(C)OC(=O)c2c1ccn(CC(O)COc1ccccc1)c2=O (stereo not given),4.40
3,CC1(C)OC(=O)c2c1ccn(CCCN1CCCC1)c2=O,4.94
4,C=CCOCC(O)Cn1ccc2c(c1=O)C(=O)OC2(C)C (stereo not given),5.23

# The remaining lines, values ahead:
row,pIC50,Structure (SMILES)
1,4.70,CC1(C)OC(=O)c2c1ccn(CCc1ccc(Cl)cc1)c2=O
2,5.28,CC1(C)OC(=O)c2c1ccn(CC(O)c1ccccc1)c2=O (stereo not given)
3,4.40,CC1(C)OC(=O)c2c1ccn(CCc1ccc(F)cc1)c2=O
4,5.08,CC1(C)OC(=O)c2c1ccn(Cc1cccc(C(F)(F)F)c1)c2=O
5,5.15,CC1(C)OC(=O)c2c1ccn(Cc1ccc(Cl)cc1)c2=O

# Organism: Oryctolagus cuniculus
# Experiment: Inhibition of chymotrypsin-like activity of 20S proteasome catalytic core from rabbit erythrocytes using Suc-LLVY-AMC as substrate at 100 uM preincubated for 15 mins prior to substrate addition measured after 45 mins
# Details: not given
row,Structure (SMILES),inhibition
1,CC1(C)OC(=O)c2c1ccn(CC(O)CN1CCOCC1)c2=O (stereo not given),inactive
2,CN(C)CCn1ccc2c(c1=O)C(=O)OC2(C)C,inactive
3,CC1(C)OC(=O)c2c1ccn(CCc1ccc(S(N)(=O)=O)cc1)c2=O,inactive
4,CC1(C)OC(=O)c2c1ccn(CC(O)COc1ccccc1)c2=O (stereo not given),inactive
5,CC1(C)OC(=O)c2c1ccn(CCCN1CCCC1)c2=O,inactive
6,C=CCOCC(O)Cn1ccc2c(c1=O)C(=O)OC2(C)C (stereo not given),inactive
7,CC1(C)OC(=O)c2c1ccn(CCNc1ccc([N+](=O)[O-])cn1)c2=O,inactive

# Next, values leading:
row,inhibition,Structure (SMILES)
1,inactive,CC1(C)OC(=O)c2c1ccn(CCc1ccc(Cl)cc1)c2=O
2,inactive,COc1ccc(CCn2ccc3c(c2=O)C(=O)OC3(C)C)cc1
3,inactive,CC1(C)OC(=O)c2c1ccn(CC(O)c1ccccc1)c2=O (stereo not given)
4,inactive,CC1(C)OC(=O)c2c1ccn(CCc1c[nH]c3ccccc13)c2=O
5,inactive,CC1(C)OC(=O)c2c1ccn(CCc1ccc(F)cc1)c2=O
6,inactive,CC1(C)OC(=O)c2c1ccn(Cc1cccc(C(F)(F)F)c1)c2=O
7,21%,CC1(C)OC(=O)c2c1ccn(Cc1ccc(Cl)cc1)c2=O
8,38.2%,CC1(C)OC(=O)c2c1ccn(CCc1ccc(O)cc1)c2=O

# Organism: Oryctolagus cuniculus
# Experiment: Inhibition of caspase-like activity of 20S proteasome catalytic core from rabbit erythrocytes using Z-LLE-NA as substrate at 100 uM preincubated for 15 mins prior to substrate addition measured after 45 mins
# Details: not given
row,Structure (SMILES),inhibition
1,CC1(C)OC(=O)c2c1ccn(CC(O)CN1CCOCC1)c2=O (stereo not given),inactive
2,CN(C)CCn1ccc2c(c1=O)C(=O)OC2(C)C,50%
3,CC1(C)OC(=O)c2c1ccn(CCNc1ccc([N+](=O)[O-])cn1)c2=O,23.4%

# Next, values leading:
row,inhibition,Structure (SMILES)
1,inactive,COc1ccc(CCn2ccc3c(c2=O)C(=O)OC3(C)C)cc1
2,23.7%,CC1(C)OC(=O)c2c1ccn(CCc1c[nH]c3ccccc13)c2=O
3,21.7%,CC1(C)OC(=O)c2c1ccn(CCc1ccc(O)cc1)c2=O

# Organism: Oryctolagus cuniculus
# Experiment: Inhibition of trypsin-like activity of 20S proteasome catalytic core from rabbit erythrocytes using Boc-LRR-AMC as substrate at 100 uM preincubated for 15 mins prior to substrate addition measured after 45 mins
# Details: not given
row,Structure (SMILES),inhibition
1,CC1(C)OC(=O)c2c1ccn(CC(O)CN1CCOCC1)c2=O (stereo not given),42.5%
2,CN(C)CCn1ccc2c(c1=O)C(=O)OC2(C)C,inactive
3,CC1(C)OC(=O)c2c1ccn(CCc1ccc(S(N)(=O)=O)cc1)c2=O,inactive
4,CC1(C)OC(=O)c2c1ccn(CC(O)COc1ccccc1)c2=O (stereo not given),33.3%
5,CC1(C)OC(=O)c2c1ccn(CCCN1CCCC1)c2=O,inactive
6,C=CCOCC(O)Cn1ccc2c(c1=O)C(=O)OC2(C)C (stereo not given),inactive
7,CC1(C)OC(=O)c2c1ccn(CCNc1ccc([N+](=O)[O-])cn1)c2=O,inactive

# Next, values leading:
row,inhibition,Structure (SMILES)
1,50%,CC1(C)OC(=O)c2c1ccn(CCc1ccc(Cl)cc1)c2=O
2,inactive,COc1ccc(CCn2ccc3c(c2=O)C(=O)OC3(C)C)cc1
3,51.5%,CC1(C)OC(=O)c2c1ccn(CC(O)c1ccccc1)c2=O (stereo not given)
4,inactive,CC1(C)OC(=O)c2c1ccn(CCc1c[nH]c3ccccc13)c2=O
5,inactive,CC1(C)OC(=O)c2c1ccn(CCc1ccc(F)cc1)c2=O
6,inactive,CC1(C)OC(=O)c2c1ccn(Cc1cccc(C(F)(F)F)c1)c2=O
7,20%,CC1(C)OC(=O)c2c1ccn(Cc1ccc(Cl)cc1)c2=O
8,inactive,CC1(C)OC(=O)c2c1ccn(CCc1ccc(O)cc1)c2=O

# Molecular target: Cathepsin B (Homo sapiens) (UniProt P07858)
# Experiment: Inhibition of cathepsin B from human hepatocytes using […] as substrate
# Details: Hepatocyte
row,Structure (SMILES),inhibition
1,CC1(C)OC(=O)c2c1ccn(CC(O)CN1CCOCC1)c2=O (stereo not given),inactive
2,CN(C)CCn1ccc2c(c1=O)C(=O)OC2(C)C,inactive
3,CC1(C)OC(=O)c2c1ccn(CCc1ccc(S(N)(=O)=O)cc1)c2=O,inactive
4,CC1(C)OC(=O)c2c1ccn(CC(O)COc1ccccc1)c2=O (stereo not given),inactive
5,CC1(C)OC(=O)c2c1ccn(CCCN1CCCC1)c2=O,inactive
6,C=CCOCC(O)Cn1ccc2c(c1=O)C(=O)OC2(C)C (stereo not given),inactive
7,CC1(C)OC(=O)c2c1ccn(CCNc1ccc([N+](=O)[O-])cn1)c2=O,inactive

# The next lines start with the values.
row,inhibition,Structure (SMILES)
1,inactive,CC1(C)OC(=O)c2c1ccn(CCc1ccc(Cl)cc1)c2=O
2,inactive,COc1ccc(CCn2ccc3c(c2=O)C(=O)OC3(C)C)cc1
3,inactive,CC1(C)OC(=O)c2c1ccn(CC(O)c1ccccc1)c2=O (stereo not given)
4,inactive,CC1(C)OC(=O)c2c1ccn(CCc1c[nH]c3ccccc13)c2=O
5,inactive,CC1(C)OC(=O)c2c1ccn(CCc1ccc(F)cc1)c2=O
6,inactive,CC1(C)OC(=O)c2c1ccn(Cc1cccc(C(F)(F)F)c1)c2=O
7,inactive,CC1(C)OC(=O)c2c1ccn(Cc1ccc(Cl)cc1)c2=O
8,inactive,CC1(C)OC(=O)c2c1ccn(CCc1ccc(O)cc1)c2=O

# Organism: Homo sapiens
# Experiment: Inhibition of calpain-1 from human erythrocytes using […] as substrate
# Details: not given
row,Structure (SMILES),inhibition
1,CC1(C)OC(=O)c2c1ccn(CC(O)CN1CCOCC1)c2=O (stereo not given),inactive
2,CN(C)CCn1ccc2c(c1=O)C(=O)OC2(C)C,inactive
3,CC1(C)OC(=O)c2c1ccn(CCc1ccc(S(N)(=O)=O)cc1)c2=O,inactive
4,CC1(C)OC(=O)c2c1ccn(CC(O)COc1ccccc1)c2=O (stereo not given),inactive
5,CC1(C)OC(=O)c2c1ccn(CCCN1CCCC1)c2=O,inactive
6,C=CCOCC(O)Cn1ccc2c(c1=O)C(=O)OC2(C)C (stereo not given),inactive
7,CC1(C)OC(=O)c2c1ccn(CCNc1ccc([N+](=O)[O-])cn1)c2=O,inactive

# Further lines, results first:
row,inhibition,Structure (SMILES)
1,inactive,CC1(C)OC(=O)c2c1ccn(CCc1ccc(Cl)cc1)c2=O
2,inactive,COc1ccc(CCn2ccc3c(c2=O)C(=O)OC3(C)C)cc1
3,inactive,CC1(C)OC(=O)c2c1ccn(CC(O)c1ccccc1)c2=O (stereo not given)
4,inactive,CC1(C)OC(=O)c2c1ccn(CCc1c[nH]c3ccccc13)c2=O
5,inactive,CC1(C)OC(=O)c2c1ccn(CCc1ccc(F)cc1)c2=O
6,inactive,CC1(C)OC(=O)c2c1ccn(Cc1cccc(C(F)(F)F)c1)c2=O
7,inactive,CC1(C)OC(=O)c2c1ccn(Cc1ccc(Cl)cc1)c2=O
8,inactive,CC1(C)OC(=O)c2c1ccn(CCc1ccc(O)cc1)c2=O

# Reference: ChEMBL document CHEMBL2034904, “A new series of N5 derivatives of the 1,1,5-trimethyl furo[3,4-c]pyridine-3,4-dione (cerpegin) selectively inhibits the post-acid activity of mammalian 20S proteasomes” (Bioorg Med Chem Lett, 2012)
